Assay results reported in US20090321255A1, “Drug-meter: Multiwell membrane-based potentiometric sensor for high throughput tests of drugs” (priority 2008, published 2009).
Structures can show the parent of a compound that is named as a salt.

Key:
[1] = Transmembrane potential calibration of multiwell biomimetic membrane sensor in buffer; type: physicochemical; conditions: pH 8
From the text: Multiwell plates used were commercial Millipore MultiScreen VM 0.05μ plates with nitrocellulose ultrafilters located at the base of each of the 96 wells of a plate. Though the number of the wells in the examples given in the disclosure is 96, as it is in the usual multiwell plates, it is not limited by this number and can be any from 2 and above.
All filters were impregnated by isopropyl myristate or some other lipid-like substances, like long chain fatty acids, their methyl and ethyl-esters, fats, etc. After impregnation the membranes should be translucent.
Each well requires as little as 200 μl of test solution. The small well's volume and the numerous wells (96) make the plates highly suitable as a part of the drug sensor, both for pharmaceutical testing in a buffer as well as for testing in biological fluids.
The tray cover can be is used as a base tray to put the reference buffer solution. Two Ag/AgCl electrodes with the salt bridges were used to measure transmembrane potential with common multimeter. It is possible to use one Ag/AgCl element as a measuring electrode and move it from one well to another. Another option is to have different measuring electrodes in different wells and separately to collect signals from each of them separately.
Kinetics of the process was registered with electrochemical station GPES. […]

[2] = Kinetics of transmembrane potential decrease due to drug transport through the membrane; type: physicochemical
Protocol: Kinetics of the process was registered with electrochemical station GPES. 5 mM Potassium Dihydrogen Phosphate solution in water was used as a buffer, filling the tray with the volume ˜30 ml. Known concentration of a drug (usually near 10^−5 M) could be added in the buffer as the reference. Membrane resistance after impregnation was several megaohms and usually decreases after modification of the membrane with drugs. Resistance is much lower when the membrane is broken. In this case the measurements can be conducted in other wells with the same test solution.
Using electrochemical station and computer it is possible to measure potential continuously in time, and for example, to study drug transport through the membrane. In this case it is possible to have different drugs or different types of membranes in different wells.
The steady state potential can decrease in time if one waits at least several minutes due to the slow drug transport through the membrane. After the experiments the membrane could be washed, dried, reimpregnated and after preequilibration used again.
At higher concentrations of the drug after the transmembrane potential reaches its maximum value, it slowly decreases with time due to the transport of the drug (FIG. 6). At pH 8 characteristic time was of the order ˜20 s and increased at more acidic pH to ˜100 s.

[3] = Solubility
[4] = target: albumin (Homo sapiens, UniProt P02768); experiment: Transmembrane potential calibration of the multiwell sensor in albumin solution; type: physicochemical
albumin, sequence (P02768 25-609, species assumed): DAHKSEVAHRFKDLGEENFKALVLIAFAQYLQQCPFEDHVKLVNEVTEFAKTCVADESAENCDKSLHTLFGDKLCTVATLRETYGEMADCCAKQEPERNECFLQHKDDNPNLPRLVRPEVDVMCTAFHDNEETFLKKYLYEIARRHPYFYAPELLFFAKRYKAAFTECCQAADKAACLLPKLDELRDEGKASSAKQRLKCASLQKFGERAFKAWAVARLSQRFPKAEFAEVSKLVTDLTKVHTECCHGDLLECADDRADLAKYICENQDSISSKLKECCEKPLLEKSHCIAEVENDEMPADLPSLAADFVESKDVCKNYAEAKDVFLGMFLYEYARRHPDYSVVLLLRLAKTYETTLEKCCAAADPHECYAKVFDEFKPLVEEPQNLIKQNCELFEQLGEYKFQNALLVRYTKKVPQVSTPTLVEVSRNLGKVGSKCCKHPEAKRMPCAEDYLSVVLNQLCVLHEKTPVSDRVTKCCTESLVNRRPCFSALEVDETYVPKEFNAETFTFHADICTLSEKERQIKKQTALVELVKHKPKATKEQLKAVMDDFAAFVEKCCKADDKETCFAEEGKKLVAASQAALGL
Protocol: In some cases drugs concentration was measured in albumin solutions with protein concentration 0.022 g/cm^3 in buffer or Fetal Bovine Serum was used with concentration of serum albumin in the range 0.0187 g/cm^3-0.022 g/cm^3.
The base plate was filled with the buffer of reference concentration 5×10^−6 M of drug, and the wells with albumin-drug solution, with constant concentration of albumin, but varying concentration of drug.
In this case the measuring Ag/AgCl electrode was inserted into the wells with albumin solution with decreasing fenfluramine concentrations, then increasing fenfluramine concentrations, i.e. forward and backward using the same wells. The base solution was buffer. The method allows measurements of fenfluramine from 5×10^−5 to 5×10^−2M.
If different concentrations of rimantadine in albumin solution were preliminary prepared, preequilibrated and then added into the wells (method 2), a gradient was 59.9 mV per 10 fold change in drug concentration, which is similar to that with a buffer solution.
Chlorpromazine test solutions were injected into the wells and the reference solution of 5×10^−6 M Chlorpromazine in the buffer was added into the base. […] This effect is similar to the lysis of biological membranes and is related to the surface active properties of chlorpromazine. It was observed also with several other psychotropic substances, including several antidepressants. Those of the drugs which induce lysis at elevated concentrations also have nonspecific liver toxicity.

[5] = Biomimetic membrane lysis (screen for nonspecific liver toxicity); conditions: elevated drug concentration (chlorpromazine near 0.05 M, after some time)
[6] = bovine, fetal bovine serum, plasma or biological fluid
[7] = pH 7.4 buffer, pH 7.4, aqueous buffer
[8] = method 1: drug added directly into albumin solutions in the wells

CCNC(C)Cc1cccc(C(F)(F)F)c1.Cl (racemic) [Fenfluramine Hydrochloride, (+/−)-N-ethyl-α-methyl-m-(trifluoromethyl) phenethylamine HCl]
time taken to reach the maximum potential [1]: less then a minute
characteristic time of potential decrease due to transport of the drug ([2]; more acidic pH): ~100 s
characteristic time of potential decrease due to transport of the drug ([2]; pH 8, higher drug concentrations (FIG. 6: 10^−3 M)): ~20 s
solubility [3, 6]: ~10 mM
solubility [3, 7]: ~50 mM

CN(C)CCCN1c2ccccc2Sc2ccc(Cl)cc21 [Chlorpromazine Hydrochloride, 2-chloro-10-[3-dimethylaminopropyl] phenothiazine]
potentials in buffer versus albumin solutions (drug binding property of albumin) ([4]; pH2, reference 5×10^−6 M drug in buffer): higher with buffer than with albumin solutions

CC(N)C12CC3CC(CC(C3)C1)C2.Cl (stereo not drawn) [Rimantadine Hydrochloride, 1-(1-Adamantyl)ethylamine hydrochloride]
slope of calibration curve [4, 8]: 19.3 mV per 10 fold change in Rimantadine concentration
time for the potential to reach the steady state [4, 8]: at least an hr
gradient of calibration curve ([4]; method 2: drug in albumin solution prepared, preequilibrated, then added into wells): 59.9 mV per 10 fold change in drug concentration
membrane lysis / loss of transmembrane potential [5]: did not result in the membrane lysis
solubility [3, 6]: ~10 mM
solubility [3, 7]: ~50 mM
